Converted amounts (≈) assume the structure as drawn. Like-named read-outs stand apart in the source and are kept apart here.
Experiments:
S. aureus NRS384 = assay: Broth minimum inhibitory concentration (MIC) assay 2; format: cell-based, Staphylococcus aureus; conditions: for MIC: Staphylococcus aureus, read-out: S. aureus Broth MIC
Protocol: To test the potency of rifamycin analogs of the disclosure in vitro, a broth growth inhibition assay was developed. For the assay, S. aureus NRS384 was grown in Tryptic Soy Broth (TSB) overnight, then sub-cultured 1:50 in fresh TSB and grown for an additional two hours. The culture was then pelleted via centrifugation and washed twice in PBS. The culture was then diluted to 1×10^6 cfu/mL in TSB and 100 μL of the suspension was added per well to a 2 mL dilution plate in triplicate. […] The plates were sealed and incubated at 37° C. with shaking for 24 hours, then 150 μL of each sample was added to 96 well microtiter plates and the OD600 nm was read on a Spectramax i3 Minimax 300.
The broth MIC experiments were assessed in at least two independent experiments and the median value is captured below unless indicated otherwise.

[1] = tested on: intracellular S. aureus NRS384 in THP-1 macrophages; assay: Intracellular killing assay 2 (rifamycin analogs, S. aureus in THP-1 macrophages); format: cell-based, Staphylococcus aureus; conditions: for MIC: Staphylococcus aureus, NRS384, 2 h, read-out: S. aureus Intracellular killing MIC
Protocol: THP-1 monocytic cell line was grown in media (RMPI+10% FBS+1% Penicillin/Streptomycin), then seeded at a density of 1e5 cells/well in a 96 well plate and differentiated into macrophages for three days prior to infection using 200 nM PMA. An overnight culture of S. aureus NRS384 was grown in RPMI, washed twice with PBS and resuspended at 1e7 cfu/mL in PBS. THP-1 were washed with warm media (RMPI without FBS) to remove the Penicillin/Streptomycin and then infected with the S. aureus suspension at a multiplicity of infection of 10:1 (S. aureus: macrophages). Plates were spun at 300×g for 5 minutes to synchronize adhesion of the bacteria, then incubated at 37° C. for 2 hours. Free-floating bacteria were removed by washing 2× with warm media and remaining extracellular S. aureus were killed by addition of media containing gentamicin (50 ug/mL). […] The compounds were added in media containing 50 µg/mL gentamicin to prevent extracellular growth of S. aureus. After 2 hours, plates were washed 2× with warm RPMI without FBS, and 100 ul of THP-1 lysis buffer (0.1% Triton in PBS) was added to each well. S. aureus survival was enumerated by colony forming units through serial dilution and plating onto TSA.
The intracellular MIC value indicated represents the median value of at least two independent experiments, unless indicated otherwise.

[2] = S. aureus NRS384 in TSB, 24 hours at 37° C., OD600, median of at least two independent experiments
[3] = lowest concentration giving intracellular S. aureus below limit of detection (50 cfu/mL) in THP-1 macrophages, median of at least two experiments

Row | Structure (SMILES) | MIC (S. aureus NRS384; [2]) | MIC [1, 3] | further results
1 | CO[C@H]1/C=C/O[C@@]2(C)Oc3c(C)c(O)c4c(=O)c(c5oc6cc(OCCCN(C)C)ccc6nc-5c4c3C2=O)NC(=O)/C(C)=C\C=C\[C@H](C)[C@H](O)[C@@H](C)[C@@H](O)[C@@H](C)[C@H](OC(C)=O)[C@@H]1C [Analog 16o] | 0.00391 µM (≈ 0.00346 µg/mL) | 0.2 µM (≈ 0.177 µg/mL) | 
2 | CO[C@H]1/C=C/O[C@@]2(C)Oc3c(C)c(O)c4c(=O)c(c5oc6cc(OCC7CCCN(C)C7)ccc6nc-5c4c3C2=O)NC(=O)/C(C)=C\C=C\[C@H](C)[C@H](O)[C@@H](C)[C@@H](O)[C@@H](C)[C@H](OC(C)=O)[C@@H]1C (some centres unmarked) [Analog 16f] | 0.0156 µM (≈ 0.0142 µg/mL) | 1 µM (≈ 0.912 µg/mL) | 
3 | CO[C@H]1/C=C/O[C@@]2(C)Oc3c(C)c(O)c4c(=O)c(c5oc6cc(OCCOCCN(C)C)ccc6nc-5c4c3C2=O)NC(=O)/C(C)=C\C=C\[C@H](C)[C@H](O)[C@@H](C)[C@@H](O)[C@@H](C)[C@H](OC(C)=O)[C@@H]1C [Analog 16s] | 0.0625 µM (≈ 0.0573 µg/mL) | 1 µM (≈ 0.916 µg/mL) | 
4 | CO[C@H]1/C=C/O[C@@]2(C)Oc3c(C)c(O)c4c(=O)c(c5oc6cc(OCCN7CCCCC7)ccc6nc-5c4c3C2=O)NC(=O)/C(C)=C\C=C\[C@H](C)[C@H](O)[C@@H](C)[C@@H](O)[C@@H](C)[C@H](OC(C)=O)[C@@H]1C [Analog 16m] | 0.00391 µM (≈ 0.00357 µg/mL) | 1 µM (≈ 0.912 µg/mL) | 
5 | CO[C@H]1/C=C/O[C@@]2(C)Oc3c(C)c(O)c4c(=O)c(c5oc6cc(OCCN7CCOCC7)cc(O)c6nc-5c4c3C2=O)NC(=O)/C(C)=C\C=C\[C@H](C)[C@H](O)[C@@H](C)[C@@H](O)[C@@H](C)[C@H](OC(C)=O)[C@@H]1C [Analog 29g] | 0.00391 µM (≈ 0.00364 µg/mL) | 0.2 µM (≈ 0.186 µg/mL) | 
6 | CO[C@H]1/C=C/O[C@@]2(C)Oc3c(C)c(O)c4c(=O)c(c5oc6cc(OCCN7CCN(C)CC7)cc(O)c6nc-5c4c3C2=O)NC(=O)/C(C)=C\C=C\[C@H](C)[C@H](O)[C@@H](C)[C@@H](O)[C@@H](C)[C@H](OC(C)=O)[C@@H]1C [Analog 29e] | 0.0156 µM (≈ 0.0147 µg/mL) | 0.04 µM (≈ 0.0377 µg/mL) | 
7 | CO[C@H]1/C=C/O[C@@]2(C)Oc3c(C)c(O)c4c(=O)c(c5oc6cc(OCCn7ccnc7)ccc6nc-5c4c3C2=O)NC(=O)/C(C)=C\C=C\[C@H](C)[C@H](O)[C@@H](C)[C@@H](O)[C@@H](C)[C@H](OC(C)=O)[C@@H]1C [Analog 16y] | 0.0156 µM (≈ 0.014 µg/mL) | > 1 µM | 
8 | CO[C@H]1/C=C/O[C@@]2(C)Oc3c(C)c(O)c4c(=O)c(c5oc6cc(OCCN7CCCC7)ccc6nc-5c4c3C2=O)NC(=O)/C(C)=C\C=C\[C@H](C)[C@H](O)[C@@H](C)[C@@H](O)[C@@H](C)[C@H](OC(C)=O)[C@@H]1C [Analog 16k] | 0.000977 µM (≈ 0.000877 µg/mL) | 1 µM (≈ 0.898 µg/mL) | 
9 | CO[C@H]1/C=C/O[C@@]2(C)Oc3c(C)c(O)c4c(=O)c(c5oc6cc(OCCN(C)C)c(Cl)cc6nc-5c4c3C2=O)NC(=O)/C(C)=C\C=C\[C@H](C)[C@H](O)[C@@H](C)[C@@H](O)[C@@H](C)[C@H](OC(C)=O)[C@@H]1C [Analog 48] | 0.0156 µM (≈ 0.0141 µg/mL) | 1 µM (≈ 0.906 µg/mL) | 
10 | CO[C@H]1/C=C/O[C@@]2(C)Oc3c(C)c(O)c4c(=O)c(c5oc6cc(OCC7CCN(C)CC7)ccc6nc-5c4c3C2=O)NC(=O)/C(C)=C\C=C\[C@H](C)[C@H](O)[C@@H](C)[C@@H](O)[C@@H](C)[C@H](OC(C)=O)[C@@H]1C [Analog 16g] | 0.0156 µM (≈ 0.0142 µg/mL) | 0.2 µM (≈ 0.182 µg/mL) | 
11 | CO[C@H]1/C=C/O[C@@]2(C)Oc3c(C)c(O)c4c(=O)c(c5oc6cc(OCCCCN(C)C)ccc6nc-5c4c3C2=O)NC(=O)/C(C)=C\C=C\[C@H](C)[C@H](O)[C@@H](C)[C@@H](O)[C@@H](C)[C@H](OC(C)=O)[C@@H]1C [Analog 16p] | 0.0156 µM (≈ 0.014 µg/mL) | 1 µM (≈ 0.9 µg/mL) | 
12 | CO[C@H]1/C=C/O[C@@]2(C)Oc3c(C)c(O)c4c(=O)c(c5oc6cc(OCCN(C)c7ccccn7)cc(O)c6nc-5c4c3C2=O)NC(=O)/C(C)=C\C=C\[C@H](C)[C@H](O)[C@@H](C)[C@@H](O)[C@@H](C)[C@H](OC(C)=O)[C@@H]1C [Analog 29h] | 0.0625 µM (≈ 0.0594 µg/mL) | 1 µM (≈ 0.951 µg/mL) | 
13 | CO[C@H]1/C=C/O[C@@]2(C)Oc3c(C)c(O)c4c(=O)c(c5oc6cc(O)cc(O)c6nc-5c4c3C2=O)NC(=O)/C(C)=C\C=C\[C@H](C)[C@H](O)[C@@H](C)[C@@H](O)[C@@H](C)[C@H](OC(C)=O)[C@@H]1C [Analog 29k] | 0.0625 µM (≈ 0.0511 µg/mL) | > 1 µM | 
14 | CO[C@H]1/C=C/O[C@@]2(C)Oc3c(C)c(O)c4c(=O)c(c5oc6cccc(OCCN(C)C)c6nc-5c4c3C2=O)NC(=O)/C(C)=C\C=C\[C@H](C)[C@H](O)[C@@H](C)[C@@H](O)[C@@H](C)[C@H](OC(C)=O)[C@@H]1C [Analog 71] | 0.0156 µM (≈ 0.0136 µg/mL) | > 1 µM | 
15 | CO[C@H]1/C=C/O[C@@]2(C)Oc3c(C)c(O)c4c(=O)c(c5oc6cc(OCCN(C)C)cc(Cl)c6nc-5c4c3C2=O)NC(=O)/C(C)=C\C=C\[C@H](C)[C@H](O)[C@@H](C)[C@@H](O)[C@@H](C)[C@H](OC(C)=O)[C@@H]1C [Analog 45] | 0.00391 µM (≈ 0.00354 µg/mL) | 1 µM (≈ 0.906 µg/mL) | 
16 | CO[C@H]1/C=C/O[C@@]2(C)Oc3c(C)c(O)c4c(=O)c(c5oc6cc(OCCN7CCCC7)cc(O)c6nc-5c4c3C2=O)NC(=O)/C(C)=C\C=C\[C@H](C)[C@H](O)[C@@H](C)[C@@H](O)[C@@H](C)[C@H](OC(C)=O)[C@@H]1C [Analog 29c] | 0.00391 µM (≈ 0.00357 µg/mL) | 0.04 µM (≈ 0.0366 µg/mL) | 
17 | CO[C@H]1/C=C/O[C@@]2(C)Oc3c(C)c(O)c4c(=O)c(c5oc6cc(OCCOCCN(C)C)cc(O)c6nc-5c4c3C2=O)NC(=O)/C(C)=C\C=C\[C@H](C)[C@H](O)[C@@H](C)[C@@H](O)[C@@H](C)[C@H](OC(C)=O)[C@@H]1C [Analog 29f] | 0.0156 µM (≈ 0.0145 µg/mL) | 0.2 µM (≈ 0.186 µg/mL) | 
18 | CO[C@H]1/C=C/O[C@@]2(C)Oc3c(C)c(O)c4c(=O)c(c5oc6cc(OCCN7CCOCC7)ccc6nc-5c4c3C2=O)NC(=O)/C(C)=C\C=C\[C@H](C)[C@H](O)[C@@H](C)[C@@H](O)[C@@H](C)[C@H](OC(C)=O)[C@@H]1C [Analog 16i] | 0.0156 µM (≈ 0.0143 µg/mL) | 1 µM (≈ 0.914 µg/mL) | 
19 | CO[C@H]1/C=C/O[C@@]2(C)Oc3c(C)c(O)c4c(=O)c(c5oc6cc(OCCN(C)C)cc(OCc7ccccc7)c6nc-5c4c3C2=O)NC(=O)/C(C)=C\C=C\[C@H](C)[C@H](O)[C@@H](C)[C@@H](O)[C@@H](C)[C@H](OC(C)=O)[C@@H]1C [Analog 52] | 0.0625 µM (≈ 0.0611 µg/mL) | 1 µM (≈ 0.978 µg/mL) | 
20 | CO[C@H]1/C=C/O[C@@]2(C)Oc3c(C)c(O)c4c(=O)c(c5oc6cc(OCCNCCOCCN7CC7)ccc6nc-5c4c3C2=O)NC(=O)/C(C)=C\C=C\[C@H](C)[C@H](O)[C@@H](C)[C@@H](O)[C@@H](C)[C@H](OC(C)=O)[C@@H]1C [Analog 16r] |  |  | MIC (S. aureus NRS384; NRS384, 24 h): 0.0156 µM (≈ 0.0149 µg/mL); MIC [1]: 1 µM (≈ 0.957 µg/mL)
21 | CO[C@H]1/C=C/O[C@@]2(C)Oc3c(C)c(O)c4c(=O)c(c5oc6cccc(O)c6nc-5c4c3C2=O)NCC(=O)/C(C)=C\C=C\[C@H](C)[C@H](O)[C@@H](C)[C@@H](O)[C@@H](C)[C@H](OC(C)=O)[C@@H]1C [Analog P1] |  |  | S. aureus Broth MIC (S. aureus NRS384; [2]): 0.0625 µM; S. aureus Intracellular killing MIC [1, 3]: 0.2 µM
22 | CO[C@H]1/C=C/O[C@@]2(C)Oc3c(C)c(O)c4c(=O)c(c5oc6cc(N7CCC(N(C)C)CC7)cc(O)c6nc-5c4c3C2=O)NC(=O)/C(C)=C\C=C\[C@H](C)[C@H](O)[C@@H](C)[C@@H](O)[C@@H](C)[C@H](OC(C)=O)[C@@H]1C [Rifalog, reference compound] | 0.000977 µM (≈ 0.000906 µg/mL) |  | 
23 | CO[C@H]1/C=C/O[C@@]2(C)Oc3c(C)c(O)c4c(=O)c(c5oc6cc(F)ccc6nc-5c4c3C2=O)NCC(=O)/C(C)=C\C=C\[C@H](C)[C@H](O)[C@@H](C)[C@@H](O)[C@@H](C)[C@H](OC(C)=O)[C@@H]1C [Analog P3] |  |  | S. aureus Broth MIC (S. aureus NRS384; [2]): 0.0156 µM

— patent US11666658B2, “Rifamycin analogs and antibody-drug conjugates thereof” (Regeneron Pharmaceuticals, Inc., priority 2018, dated 2023)
